Assay results: patent publication US20200079765A1, “SUBSTITUTED HETEROARYL PYRROLONES AND SALTS THEREOF AND USE THEREOF AS HERBICIDAL ACTIVE SUBSTANCES” (Bayer CropScience Aktiengesellschaft, priority 2016, published 2020)

How the values were obtained:
Type in all cases: in vivo
Lolium rigidum [1] = assay: Post-emergence herbicidal action (Experimental Part 1, A); conditions: application rate 1280 g/ha, rated visually after about 3 weeks
Procedure, shortened: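 Visual % activity vs untreated controls (100% = plants dead, 0% = like control), scored ~3 weeks post-spray. Foliar application at one-leaf stage, 1280 or 320 g/ha, 600 l/ha water, 0.5% additive.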

Stellaria media = assay: Pre-emergence herbicidal action (Experimental Part 1, B); conditions: scored visually after about 3 weeks
Procedure, shortened: (§1)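 Compounds formulated as WP or EC, sprayed onto soil covering sown seeds as aqueous suspension/emulsion with 0.5% additive at 600 l/ha water, at 1280 or 320 g/ha. Greenhouse-grown; after about 3 weeks, visual % effect versus untreated controls (100% = dead, 0% = like control).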

Polygonum convolvulus = assay: as above; conditions: scored visually after about 3 weeks
Procedure, shortened: as §1

Avena fatua = assay: as above; conditions: scored visually after about 3 weeks
Procedure, shortened: as §1

Echinochloa crus-galli = assay: as above; conditions: application rate 1280 g/ha, scored visually after about 3 weeks
Procedure, shortened: as §1

Matricaria inodora = assay: as above; conditions: scored visually after about 3 weeks
Procedure, shortened: as §1

Abutilon theophrasti = assay: as above; conditions: scored visually after about 3 weeks
Procedure, shortened: as §1

Lolium rigidum [2] = assay: as above; conditions: application rate 1280 g/ha, scored visually after about 3 weeks
Procedure, shortened: as §1

Hordeum murinum = assay: as above; conditions: scored visually after about 3 weeks
Procedure, shortened: as §1

Alopecurus myosuroides = assay: as above; conditions: scored visually after about 3 weeks
Procedure, shortened: as §1

Viola tricolor = assay: as above; conditions: scored visually after about 3 weeks
Procedure, shortened: as §1

Amaranthus retroflexus = assay: as above; conditions: scored visually after about 3 weeks
Procedure, shortened: as §1

Setaria viridis = assay: as above; conditions: scored visually after about 3 weeks
Procedure, shortened: as §1

Ipomoea purpurea = assay: as above; conditions: application rate 1280 g/ha, scored visually after about 3 weeks
Procedure, shortened: as §1

Veronica persica = assay: as above; conditions: application rate 1280 g/ha, scored visually after about 3 weeks
Procedure, shortened: as §1

Row | SMILES | Stellaria media, herbicidal activity (Stellaria media; application rate 320 g/ha) [%] | Stellaria media, herbicidal activity (Stellaria media; application rate 1280 g/ha) [%] | Polygonum convolvulus, herbicidal activity (Polygonum convolvulus; application rate 320 g/ha) [%] | Polygonum convolvulus, herbicidal activity (Polygonum convolvulus; application rate 1280 g/ha) [%] | Avena fatua, herbicidal activity (Avena fatua; application rate 320 g/ha) [%] | Avena fatua, herbicidal activity (Avena fatua; application rate 1280 g/ha) [%] | Echinochloa crus-galli, herbicidal activity (Echinochloa crus-galli) [%] | Matricaria inodora, herbicidal activity (Matricaria inodora; application rate 320 g/ha) [%] | Matricaria inodora, herbicidal activity (Matricaria inodora; application rate 1280 g/ha) [%] | Abutilon theophrasti, herbicidal activity (Abutilon theophrasti; application rate 320 g/ha) [%] | Abutilon theophrasti, herbicidal activity (Abutilon theophrasti; application rate 1280 g/ha) [%] | Lolium rigidum, herbicidal activity (Lolium rigidum [2]) [%] | Hordeum murinum, herbicidal activity (Hordeum murinum; application rate 1280 g/ha) [%] | Alopecurus myosuroides, herbicidal activity (Alopecurus myosuroides; application rate 320 g/ha) [%] | Alopecurus myosuroides, herbicidal activity (Alopecurus myosuroides; application rate 1280 g/ha) [%] | Viola tricolor, herbicidal activity (Viola tricolor; application rate 320 g/ha) [%] | Viola tricolor, herbicidal activity (Viola tricolor; application rate 1280 g/ha) [%] | Amaranthus retroflexus, herbicidal activity (Amaranthus retroflexus; application rate 320 g/ha) [%] | Amaranthus retroflexus, herbicidal activity (Amaranthus retroflexus; application rate 1280 g/ha) [%] | Setaria viridis, herbicidal activity (Setaria viridis; application rate 320 g/ha) [%] | also measured
1 | CCC(=O)OC1C(C)=CC(=O)N1c1cc(C(C)(C)C)on1 (stereo not drawn) [I.5-162] | 100 | 100 | 100 | 100 | 90 | 90 | 100 | 100 | 100 | 100 | 100 | 90 | 100 | 90 | 90 | 100 | 100 | 100 | 100 | 100 | Lolium rigidum, herbicidal activity (Lolium rigidum [1]): 90%; Setaria viridis, herbicidal activity (Setaria viridis; application rate 1280 g/ha): 100%; Ipomoea purpurea, herbicidal activity (Ipomoea purpurea): 90%; Veronica persica, herbicidal activity (Veronica persica): 100%
2 | CC1=CC(=O)N(c2cc(C(C)(C)C)on2)C1O (stereo not drawn) [I.1-162, 5-Hydroxy-4-methyl-1-(5-tert-butyl-1,2-isoxazol-3-yl)-1,5-dihydro-2H-pyrrol-2-one] | 100 | 100 | 100 | 100 | 90 | 100 | 100 | 100 | 100 | 100 | 100 | 100 | 100 | 90 | 100 | 100 | 100 | 100 | 100 | 100 | Hordeum murinum, herbicidal activity (Hordeum murinum; application rate 320 g/ha): 90%; Setaria viridis, herbicidal activity (Setaria viridis; application rate 1280 g/ha): 100%; Ipomoea purpurea, herbicidal activity (Ipomoea purpurea): 100%; Veronica persica, herbicidal activity (Veronica persica): 100%
